Data as given in patent publication US6548496B2, “Substituted 3-cyano-[1.7], [1.5], and [1.8] naphthyridine inhibitors of tyrosine kinases” (American Cyanamid Company, priority 1999, dated 2003).
≈ marks a conversion by molar mass, not a printed value.

What was measured:
[1] = biological target: Epithelial Cell Kinase (ECK) (Homo sapiens, UniProt P29317); assay: Inhibition of Epithelial Cell Kinase (ECK); assay type: biochemical; details: biotinylated peptide substrate, HRP anti-phosphotyrosine readout, pH 7.2
Epithelial Cell Kinase (ECK), sequence (P29317 24-976, species assumed): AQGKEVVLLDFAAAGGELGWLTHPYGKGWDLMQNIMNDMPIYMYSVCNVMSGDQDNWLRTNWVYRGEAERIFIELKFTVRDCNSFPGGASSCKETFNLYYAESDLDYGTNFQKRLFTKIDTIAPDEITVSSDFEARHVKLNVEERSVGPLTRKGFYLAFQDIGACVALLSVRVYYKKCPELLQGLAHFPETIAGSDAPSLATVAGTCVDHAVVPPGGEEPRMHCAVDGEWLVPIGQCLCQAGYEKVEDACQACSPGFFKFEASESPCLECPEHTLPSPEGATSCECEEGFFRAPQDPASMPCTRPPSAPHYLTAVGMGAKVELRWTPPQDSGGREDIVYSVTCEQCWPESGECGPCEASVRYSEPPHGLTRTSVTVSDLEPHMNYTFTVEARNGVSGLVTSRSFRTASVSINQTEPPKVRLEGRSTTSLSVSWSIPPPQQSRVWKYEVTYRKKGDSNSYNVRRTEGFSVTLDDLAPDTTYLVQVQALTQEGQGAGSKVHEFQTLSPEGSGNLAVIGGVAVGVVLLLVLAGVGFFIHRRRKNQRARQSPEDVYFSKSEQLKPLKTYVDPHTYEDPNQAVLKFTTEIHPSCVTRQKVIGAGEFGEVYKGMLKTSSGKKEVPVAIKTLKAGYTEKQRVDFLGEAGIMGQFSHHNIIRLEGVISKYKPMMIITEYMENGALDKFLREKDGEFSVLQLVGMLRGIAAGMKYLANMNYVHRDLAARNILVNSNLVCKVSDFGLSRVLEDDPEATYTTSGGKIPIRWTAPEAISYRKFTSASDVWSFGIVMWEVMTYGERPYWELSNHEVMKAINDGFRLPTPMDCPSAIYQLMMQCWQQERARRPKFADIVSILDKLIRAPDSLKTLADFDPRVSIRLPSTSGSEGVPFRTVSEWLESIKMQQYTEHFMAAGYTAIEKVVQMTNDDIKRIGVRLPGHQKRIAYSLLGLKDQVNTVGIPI
Experimental: In this standard pharmacological test procedure, a biotinylated peptide substrate is first immobilized on neutravidin-coated microtiter plates. The test drug, the Epithelial Cell Kinase (ECK), Mg^++, sodium vanadate (a protein tyrosine phosphatase inhibitor), and an appropriate buffer to maintain pH (7.2) are then added to the immobilized substrate-containing microtiter wells. ATP is then added to initiate phosphorylation. After incubation, the assay plates are washed with a suitable buffer leaving behind phosphorylated peptide which is exposed to horse radish peroxidase (HRP)-conjugated anti-phosphotyrosine monoclonal antibody. The antibody-treated plates are washed again and the HRP activity in individual wells is quantified as a reflection of degree of substrate phosphorylation. This nonradioactive format was used to identify inhibitors of ECK tyrosine kinase activity where the IC50 is the concentration of drug that inhibits substrate phosphorylation by 50%. Multiple entries for a given compound indication it was tested multiple times.

[2] = biological target: T1, epidermal growth factor receptor kinase (EGF-R), His-tagged cytoplasmic domain of EGFR (Homo sapiens, UniProt P00533); assay: Inhibition of EGF-R kinase using recombinant enzyme; assay type: biochemical; details: RR-SRC peptide substrate, 33P-ATP, 90 min at room temperature
T1 construct: containing the EGFR cDNA encoding amino acids 645-1186 preceded by Met-Ala-(His)6; made in house; host or cells: Sf9 insect cells, recombinant baculovirus vHcEGFR52
T1 sequence (P00533 669-1210): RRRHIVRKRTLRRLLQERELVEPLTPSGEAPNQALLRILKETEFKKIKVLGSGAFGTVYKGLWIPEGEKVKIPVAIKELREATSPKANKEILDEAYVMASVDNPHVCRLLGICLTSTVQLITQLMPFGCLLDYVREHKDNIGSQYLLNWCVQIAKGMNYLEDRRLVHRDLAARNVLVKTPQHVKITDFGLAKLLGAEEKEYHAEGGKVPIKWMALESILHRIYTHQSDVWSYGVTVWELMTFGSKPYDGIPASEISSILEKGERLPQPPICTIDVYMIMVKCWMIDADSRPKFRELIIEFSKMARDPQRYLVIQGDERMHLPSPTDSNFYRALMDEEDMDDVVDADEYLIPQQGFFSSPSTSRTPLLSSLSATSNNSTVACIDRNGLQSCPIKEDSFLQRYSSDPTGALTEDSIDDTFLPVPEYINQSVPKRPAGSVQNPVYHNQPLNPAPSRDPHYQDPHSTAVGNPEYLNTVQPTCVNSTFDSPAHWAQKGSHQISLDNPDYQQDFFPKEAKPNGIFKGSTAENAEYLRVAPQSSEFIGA
Experimental: Representative test compounds were evaluated for their ability to inhibit the phosphorylation of the tyrosine residue of a peptide substrate catalyzed by the enzyme epidermal growth factor receptor kinase. The peptide substrate (RR-SRC) has the sequence arg-arg-leu-ile-glu-asp-ala-glu-tyr-ala-ala-arg-gly. The enzyme used in this assay is the His-tagged cytoplasmic domain of EGFR. A recombinant baculovirus (vHcEGFR52) was constructed containing the EGFR cDNA encoding amino acids 645-1186 preceded by Met-Ala-(His)6. Sf9 cells in 100 mm plates were infected at an moi of 10 pfu/cell and cells were harvested 48 h post infection. A cytoplasmic extract was prepared using 1% Triton X-100 and applied to Ni-NTA column. After washing the column with 20 mM imidazole, HcEGFR was eluted with 250 mM imidazole (in 50 mM Na2HPO4, pH 8.0, 300 mM NaCl). […]
For the enzyme reaction, 10 uL of each inhibitor (at various concentrations) were added to each well of a 96-well plate. […] The filter discs were washed 2× with 0.5% phosphoric acid and radioactivity was measured using a liquid scintillation counter.
The inhibition data for representative compounds of the invention are shown below in TABLE 1. […] The % inhibition of the test compound was determined for at least three different concentrations and the IC50 value was evaluated from the dose response curve. The % inhibition was evaluated with the following formula: […]

SW620 = assay: Inhibition of cancer cell growth by cell number, SW620; assay type: cell-based, Human; details: Homo sapiens, SW-620; 48 hours exposure, Sulforhodamine B
Experimental: (§1) Human tumor cell lines were plated in 96-well plates (250 μl/well, 1-6×10^4 cells/ml) in RPMI 1640 medium, containing 5% FBS (Fetal Bovine Serum). […] After 48 hours exposure to test compounds, cells were fixed with trichloroacetic acid, and stained with Sulforhodamine B. After washing with trichloroacetic acid, bound dye was solubilized in 10 mM Tris base and optical density was determined using a plate reader. Under conditions of the assay the optical density is proportional to the number of cells in the well. IC50s (concentrations causing 50% inhibition of cell growth) were determined from the growth inhibition plots. The test procedure is described in details by Philip Skehan et. at J. Natl. Canc. Inst., 82, 1107-1112 (1990). […] Information about some of the cell lines used in these test procedures is available from the American […]: Cell Lines and Hybridomas, 1994 Reference Guide, 8th Edition. The Her2Neu cell line is a 3T3 line that has bbeen transfected with Her2 receptor kinase.

A431 = assay: Inhibition of cancer cell growth by cell number, A431; assay type: cell-based, Human; details: Homo sapiens, A-431; 48 hours exposure, Sulforhodamine B
Experimental: as §1

A2780S = assay: Inhibition of cancer cell growth by cell number, A2780S; assay type: cell-based, Human; details: Homo sapiens, A2780S; 48 hours exposure, Sulforhodamine B
Experimental: as §1

MDA435 = assay: Inhibition of cancer cell growth by cell number, MDA435; assay type: cell-based, Human; details: Homo sapiens, MDA435; 48 hours exposure, Sulforhodamine B
Experimental: as §1

A2780DDP = assay: Inhibition of cancer cell growth by cell number, A2780DDP; assay type: cell-based, Human; details: Homo sapiens; 48 hours exposure, Sulforhodamine B
Experimental: as §1

SKBR3 = assay: Inhibition of cancer cell growth by cell number, SKBR3; assay type: cell-based, Human; details: Homo sapiens, SK-BR-3; 48 hours exposure, Sulforhodamine B
Experimental: as §1

melting point	Compound	other results
	CC#CC(=O)Nc1cnc2ncc(C#N)c(Nc3cccc(Br)c3)c2c1 [Example 24, But-2-ynoic Acid [5-(3-bromo-phenylamino)-6-cyano-[1,8]-naphthyridin-3-yl]-amide]	IC50 [1]: < 0.04 µM
	CC#CC(=O)Nc1cnc2ncc(C#N)c(Nc3ccc(F)c(Cl)c3)c2c1 [Example 27, But-2-ynoic acid [5-(3-chloro-4-fluoro-phenylamino)-6-cyano-[1,8]naphthyridin-3-yl]-amide]	IC50 [2]: > 0.1 µM
185 to 195 °C	N#Cc1cnc2cnc(F)cc2c1Nc1cccc(Br)c1 [Example 57, 4-(3-Bromo-phenylamino)-6-fluoro-[1,7]naphthyridine-3-carbonitrile]	
82 to 86 °C (dec.)	COc1ccc(CNc2cc3c(Nc4cccc(Br)c4)c(C#N)cnc3cn2)cc1 [Example 58, 4-(3-Bromo-phenylamino)-6-(4-methoxy-benzylamino)-[1,7]naphthyridine-3-carbonitrile]	
185 to 190 °C (dec.)	N#Cc1cnc2cnc(N)cc2c1Nc1cccc(Br)c1 [Example 59, 6-Amino-4-(3-bromo-phenylamino)-[1,7]naphthyridine-3-carbonitrile]	
255 °C (dec.)	CC#CC(=O)Nc1cc2c(Nc3cccc(Br)c3)c(C#N)cnc2cn1 [Example 61, But-2-ynoic Acid, [4-(3-bromo-phenylamino)-3-cyano-[1,7]naphthyridin-6-yl]-amide]	
180 to 185 °C (dec.)	CN(C)CC=CC(=O)Nc1cc2c(Nc3cccc(Br)c3)c(C#N)cnc2cn1 [Example 62, 4-Dimethylamino-but-2-enoic Acid, [4-(3-bromo-phenylamino)-3-cyano-[1,7]naphthyridin-6-yl]-amide]	IC50 (SW620): 0.356 µg/mL (≈ 0.789 µM)
80 to 96 °C (dec.)	N#Cc1cnc2cnc(NCCN3CCOCC3)cc2c1Nc1cccc(Br)c1 [Example 63, 4-(3-Bromo-phenylamino)-6-(2-morpholino-4-yl-ethylamino)-[1,7]naphthyridine-3-carbonitrile]	
250 °C (dec.)	CNc1cc2c(Nc3cccc(Br)c3)c(C#N)cnc2cn1 [Example 64, 4-(3-Bromo-phenylamino)-6-methylamino-[1,7]naphthyridine-3-carbonitrile]	
236 to 239 °C (dec.)	Cc1ccc(Nc2c(C#N)cnc3cnc(F)cc23)cc1O [Example 66, 6-Fluoro-4-(3-hydroxy-4-methyl-phenylamino)-[1,7]naphthyridine-3-carbonitrile]	IC50 [1]: > 3.3 µM
211 to 213 °C	N#Cc1cnc2cnc(F)cc2c1Nc1ccc(Oc2ccccc2)cc1 [Example 67, 6-Fluoro-4-(4-phenoxy-phenylamino)-[1,7]naphthyridine-3-carbonitrile]	
206 to 208 °C	N#Cc1cnc2cnc(F)cc2c1Nc1ccc(Cl)cc1Cl [Example 68, 4-(2,4-Dichloro-phenylamino)-6-fluoro-[1,7]naphthyridine-3-carbonitrile]	
108 to 111 °C	N#Cc1cnc2cnc(F)cc2c1Nc1ccc(F)c(Cl)c1 [Example 69, 4-(3-Chloro-4-fluoro-phenylamino)-6-fluoro-[1,7]naphthyridine-3-carbonitrile]	
186 to 188 °C	N#Cc1cnc2cnc(F)cc2c1Oc1ccc(Cl)cc1F [Example 71, 4-(4-Chloro-2-fluoro-phenoxy)-6-fluoro-[1,7]naphthyridine-3-carbonitrile]	
159 to 161 °C	CN(C)CCOc1cc2c(Nc3ccc(Oc4ccccc4)cc3)c(C#N)cnc2cn1 [Example 73, 6-(2-Dimethylamino-ethoxy)4(4-phenoxy-phenylamino)-[1,7]naphthyridine-3-carbonitrile]	
131 to 132 °C	CN(C)CCOc1cc2c(Nc3ccc(F)c(Cl)c3)c(C#N)cnc2cn1 [Example 74, 4-(3-Chloro-4-fluoro-phenylamino)-6-(2-dimethylamino-ethoxy)-[1,7]naphthyridine-3-carbonitrile]	
150 to 152 °C	CN(C)CCOc1cc2c(Nc3ccc(Cl)cc3F)c(C#N)cnc2cn1 [Example 76, 4-(4-Chloro-2-fluoro-phenylamino)-6-(2-dimethylamino-ethoxy)-[1,7]naphthyridine-3-carbonitrile]	
138 to 139 °C	CN(C)CCOc1cc2c(Nc3cccc(Br)c3)c(C#N)cnc2cn1 [Example 77, 4-(3-Bromo-phenylamino)-6-(2-dimethylamino-ethoxy)-[1,7]naphthyridine-3-carbonitrile]	IC50 [1]: > 2.4 µM
220 to 223 °C	N#Cc1cnc2cnc(Cl)cc2c1Nc1cccc(Br)c1 [Example 83, 4-(3-Bromo-phenylamino)-6-chloro-[1,7]naphthyridine-3-carbonitrile]	
224 °C (dec.)	C#Cc1cc2c(Nc3cccc(Br)c3)c(C#N)cnc2cn1 [Example 86, 4-(3-Bromo-phenylamino)-6-ethynyl-[1,7]naphthyridine-3-carbonitrile]	

Compound	melting point	other results
C[Si](C)(C)C#Cc1cc2c(Nc3cccc(Br)c3)c(C#N)cnc2cn1 [Example 85, 4-(3-Bromo-phenylamino)-6-trimethylsilanylethynyl-[1,7]naphthyridine-3-carbonitrile]	125 °C	IC50 (A431): 3.06 µg/mL (≈ 7.25 µM); IC50 (A2780S): 2.34 µg/mL (≈ 5.56 µM); IC50 (MDA435): 4.2 µg/mL (≈ 9.97 µM); IC50 (A2780DDP): 2.97 µg/mL (≈ 7.05 µM); IC50 (SKBR3): 3.59 µg/mL (≈ 8.52 µM); IC50 (SW620): 4.72 µg/mL (≈ 11.2 µM)
